Laboratory results from patent publication US20050277630A1, “Antibacterial agents” (priority 2003, published 2005).
≈ marks a conversion by molar mass, not a printed value.

Assays:
[1] = tested on: S pyogenes C203; test: Antibacterial assay (Test A), standard microtitration, MIC; format: cell-based; settings: Gram Positive Bacteria; strain C203
Procedure: (§1) The compounds of the present invention were tested against an assortment of Gram-negative and Gram-positive organisms using standard microtitration techniques (Cohen et. al., Antimicrob., 1985; 28: 766; Heifetz, et. al., Antimicrob., 1974; 6: 124).

[2] = tested on: S. aureus UC-76; test: as above; format: cell-based; settings: Gram Positive Bacteria, strain UC-76; for MIC: Staphylococcus aureus, UC76
Procedure: as §1

[3] = tested on: E. faecalis MGH-2; test: as above; format: cell-based; settings: Gram Positive Bacteria, strain MGH-2; for MIC: Enterococcus faecalis, MGH2
Procedure: as §1

[4] = tested on: E. coli Tol C; test: as above; format: cell-based; settings: for MIC: Escherichia coli, read-out: MIC E. coli Tol C; for MIC E. coli Tol C: Gram Negative Bacteria, strain Tol C
Procedure: as §1

[5] = tested on: M. catarrhalis BC3534; test: as above; format: cell-based; settings: strain BC3534; for MIC: Moraxella catarrhalis, BC3534, Gram Negative Bacteria; for MIC M. catarrhalis BC3534: Gram Negative Bacteria
Procedure: as §1

[6] = tested on: H. influenzae HI3542; test: as above; format: cell-based; settings: Gram Negative Bacteria, strain HI3542; for MIC: Haemophilus influenzae
Procedure: as §1

**Q.** For `CC(=O)NC[C@H]1CN(c2ccc3c(c2)CCSC(=CN(C)C)C3=O)C(=O)O1`, which melting point is on record?
**A.** Its melting point is 221 to 222 °C.

**Q.** Which melting point does the source give for `CC(=O)NC[C@H]1CN(c2ccc3c(c2)CCSc2cn[nH]c2-3)C(=O)O1` here?
**A.** The melting point was 186 to 187 °C.

**Q.** For `CC(=O)NC[C@H]1CN(c2ccc3c(c2)CCSc2cnc(N)nc2-3)C(=O)O1`, which melting point is on record?
**A.** Its melting point is 190 to 191 °C (dec.).

**Q.** For `CC(=O)NC[C@H]1CN(c2ccc3c(c2)CCS(=O)(=O)C(=CN(C)C)C3=O)C(=O)O1`, which melting point is on record?
**A.** Its melting point is 261 to 263 °C.

**Q.** With `CC(=O)NC[C@H]1CN(c2ccc3c(c2)CCS(=O)(=O)c2cn[nH]c2-3)C(=O)O1` as the compound, how does the melting point read?
**A.** The melting point was 292 to 293 °C.

**Q.** With `CC(=O)NC[C@H]1CN(c2ccc3c(c2)CCS(=O)(=O)c2cnc(N)nc2-3)C(=O)O1` as the compound, how does the melting point read?
**A.** Its melting point is 211 to 213 °C (dec.).

**Q.** For `CC(=O)NC[C@H]1CN(c2ccc3c(c2)CCS(=O)(=O)c2cnoc2-3)C(=O)O1`, which melting point is on record?
**A.** Its melting point is 211 to 212 °C.

**Q.** With `CC(=O)NC[C@H]1CN(c2ccc3c(c2)CCSCC3=O)C(=O)O1` as the compound, how does the melting point read?
**A.** The melting point was 232 to 233 °C.

**Q.** With `CC(=O)NC[C@H]1CN(c2ccc3c(c2)CCNC(=O)N3)C(=O)O1` as the compound, how does the melting point read?
**A.** Its melting point is 177 to 178 °C.

**Q.** With `CC(=O)NC[C@H]1CN(c2ccc3c(c2)CCC(N)C(=O)N3)C(=O)O1` (stereo partly drawn) as the compound, how does the melting point read?
**A.** Its melting point is > 160 °C (dec.).

**Q.** For `CC(=O)NC[C@H]1CN(c2ccc3c(c2)OCCc2c(-c4ccc(F)cc4)n[nH]c2-3)C(=O)O1`, which MIC [1] is on record?
**A.** Its MIC is 0.5 mg/L (≈ 1.15 µM).

**Q.** What about the MIC [2] of the same compound?
**A.** The MIC was 1 mg/L (≈ 2.29 µM).

**Q.** What about the MIC [3] of the same compound?
**A.** The MIC was 1 mg/L (≈ 2.29 µM).

**Q.** For `CC(=O)NC[C@H]1CN(c2ccc3c(c2)OCCc2c(-c4ccncc4)n[nH]c2-3)C(=O)O1` [Example 22, (S)—N-[2-Oxo-3-(3-pyridin-4-yl-4,5-dihydro-1H-6-oxa-1,2-diaza-benzo[e]azulen-8-yl)-oxazolidin-5-ylmethyl]-acetamide], which MIC [4] is on record?
**A.** The MIC was greater than 64 mg/L.

**Q.** And the MIC [5]?
**A.** The MIC was greater than 64 mg/L.

**Q.** And the MIC [1]?
**A.** Its MIC is 1 mg/L (≈ 2.38 µM).

**Q.** What about the MIC [2] of the same compound?
**A.** The MIC was 4 mg/L (≈ 9.54 µM).

**Q.** What about the MIC [3] of the same compound?
**A.** Its MIC is 4 mg/L (≈ 9.54 µM).

**Q.** And the MIC [6]?
**A.** Its MIC is 4 mg/L (≈ 9.54 µM).

**Q.** Which results are given for `CC(=O)NC[C@H]1CN(c2ccc3c(c2)OCCc2cn[nH]c2-3)C(=O)O1` [Example 37, (S)—N-[3-(4,5-Dihydro-1H-6-oxa-1,2-diaza-benzo[e]azulen-8-yl)-2-oxo-oxazolidin-5-ylmethyl]-acetamide]?
**A.** MIC [4]: > 64 mg/L; MIC M. catarrhalis BC3534 [5]: 4 mg/L (≈ 11.7 µM); MIC [1]: 0.5 mg/L (≈ 1.46 µM); MIC [2]: 2 mg/L (≈ 5.84 µM); MIC [3]: 2 mg/L (≈ 5.84 µM); MIC [6]: 8 mg/L (≈ 23.4 µM)

**Q.** With `CC(=O)NC[C@H]1CN(c2ccc3c(c2)OCCc2cnoc2-3)C(=O)O1` [Example 38, (S)—N-[3-(4,5-Dihydro-1,6-dioxa-2-aza-benzo[e]azulen-8-yl)-2-oxo-oxazolidin-5-ylmethyl]-acetamide] as the compound, how does the MIC [4] read?
**A.** Its MIC is greater than 64 mg/L.

**Q.** And the MIC [1]?
**A.** The MIC was 0.5 mg/L (≈ 1.46 µM).

**Q.** What about the MIC [2] of the same compound?
**A.** Its MIC is 1 mg/L (≈ 2.91 µM).

**Q.** And the MIC [3]?
**A.** Its MIC is 1 mg/L (≈ 2.91 µM).

**Q.** And the MIC [6]?
**A.** The MIC was 4 mg/L (≈ 11.7 µM).

**Q.** With `CC(=O)NC[C@H]1CN(c2ccc3c(c2)OCCc2cn(C)nc2-3)C(=O)O1` [Example 39, (S)—N-[3-(2-Methyl4,5-dihydro-2H-6-oxa-1,2-diaza-benzo[e]azulen-8-yl)-2-oxo-oxazolidin-5-ylmethyl]-acetamide] as the compound, how does the MIC [4] read?
**A.** Its MIC is greater than 64 mg/L.

**Q.** And the MIC [5]?
**A.** The MIC was greater than 64 mg/L.

**Q.** And the MIC [1]?
**A.** Its MIC is 32 mg/L (≈ 89.8 µM).

**Q.** And the MIC [2]?
**A.** The MIC was greater than 64 mg/L.

**Q.** And the MIC [3]?
**A.** The MIC was 32 mg/L (≈ 89.8 µM).

**Q.** What about the MIC [6] of the same compound?
**A.** Its MIC is greater than 64 mg/L.

**Q.** Which “MIC E. coli Tol C” value [4] does the source give for `CC(=O)NC[C@H]1CN(c2ccc3c(c2)OCCc2cn[nH]c2-3)C(=O)O1` [drawing 124] here?
**A.** Its value is greater than 64 mg/L.

**Q.** And the “MIC M. catarrhalis BC3534” value [5]?
**A.** The value was 16 mg/L (≈ 46.7 µM).

**Q.** What about the “MIC H. influenzae HI3542” value [6] of the same compound?
**A.** The value was 8 mg/L (≈ 23.4 µM).

**Q.** For “(S)—N-[2-Oxo-3-(2-phenethyl-4,5-dihydro-2H-6-oxa-1,2-diaza-benzo[e]azulen-8-yl)-oxazolidin-5-ylmethyl]-acetamide and (S)—N-[2-Oxo-3-(1-phenethyl-4,5-dihydro-1H-6-oxa-1,2-diaza-benzo[e]azulen-8-yl)-oxazolidin-5-ylmethyl]-acetamide [Example 42]”, which “MIC E. coli Tol C” value [4] is on record?
**A.** Its value is greater than 64 mg/L.

**Q.** And the “MIC M. catarrhalis BC3534” value [5]?
**A.** The value was greater than 64 mg/L.

**Q.** And the “MIC S pyogenes C203” value [1]?
**A.** Its value is 32 mg/L.

**Q.** And the “MIC S. aureus UC-76” value [2]?
**A.** Its value is 32 mg/L.

**Q.** What about the “MIC E. faecalis MGH-2” value [3] of the same compound?
**A.** The value was 32 mg/L.

**Q.** And the “MIC H. influenzae HI3542” value [6]?
**A.** The value was greater than 64 mg/L.

**Q.** With “(S)—N-[3-(2-Benzyl-4,5-dihydro-2H-6-oxa-1,2-diaza-benzo[e]azulen-8-yl)-2-oxo-oxazolidin-5-ylmethyl]-acetamide and (S)—N-[3-(1-Benzyl-4,5-dihydro-1H-6-oxa-1,2-diaza-benzo[e]azulen-8-yl)-2-oxo-oxazolidin-5-ylmethyl]-acetamide [Example 41]” as the compound, how does the “MIC E. coli Tol C” value [4] read?
**A.** Its value is greater than 64 mg/L.

**Q.** What about the “MIC M. catarrhalis BC3534” value [5] of the same compound?
**A.** The value was greater than 64 mg/L.

**Q.** What about the “MIC S pyogenes C203” value [1] of the same compound?
**A.** Its value is 32 mg/L.

**Q.** And the “MIC S. aureus UC-76” value [2]?
**A.** The value was greater than 64 mg/L.

**Q.** And the “MIC E. faecalis MGH-2” value [3]?
**A.** The value was greater than 64 mg/L.

**Q.** And the “MIC H. influenzae HI3542” value [6]?
**A.** Its value is greater than 64 mg/L.

**Q.** What does the source list for “(S)—N-[3-(2-Ethyl-4,5-dihydro-2H-6-oxa-1,2-diaza-benzo[e]azulen-8-yl)-2-oxo-oxazolidin-5-ylmethyl]-acetamide and (S)—N-[3-(1-Ethyl-4,5-dihydro-1H-6-oxa-1,2-diaza-benzo[e]azulen-8-yl)-2-oxo-oxazolidin-5-ylmethyl]-acetamide [Example 40]”?
**A.** MIC E. coli Tol C [4]: >64 mg/L; MIC M. catarrhalis BC3534 [5]: >64 mg/L; MIC S pyogenes C203 [1]: 32 mg/L; MIC S. aureus UC-76 [2]: >64 mg/L; MIC E. faecalis MGH-2 [3]: >64 mg/L; MIC H. influenzae HI3542 [6]: >64 mg/L
